This note sets out measurements from patent US20160137714A1 (Thrasos Innovation, Inc., priority 2014, published 2016).

Data set [1] in a line: THR-123 i.v. in rodents: half-life and metabolites in plasma and kidney tissue. The format is in vivo, rat. The text has this:
The main metabolite VII results from a proteolytic cleavage between positions 14 and 15 (VII in FIG. 2). The structure of each metabolite was confirmed by synthesis and analytical characterization.

A further data set is described as follows: Ex-vivo plasma stability. The data set is classed as in vitro ADME, mouse or rat. To be noted: fresh plasma 37° C., 1 μM.

Positions of bridges follow the written chain, without caps; N, C: chain ends. Residues, ends and D or L forms follow the SMILES beside them.

As usually defined, the fraction remaining is what is left of the initial amount, in per cent. As to `CC(C)C[C@@H]1NC(=O)[C@H](C(C)C)NC(=O)[C@H](CC(N)=O)NC(=O)[C@H](CO)NC(=O)[C@H](CO)NC(=O)[C@H](CC(=O)O)NC(=O)[C@H](CC(=O)O)NC(=O)[C@H](Cc2ccccc2)NC(=O)[C@H](Cc2ccc(O)cc2)NC(=O)[C@@H](N)CSSC[C@@H](C(=O)N[C@@H](CCCCN)C(=O)N[C@@H](CCCCN)C(=O)N[C@@H](Cc2ccc(O)cc2)C(=O)N[C@@H](CCCNC(=N)N)C(=O)N[C@@H](CO)C(=O)O)NC1=O` [THR-123, Cys-Tyr-Phe-Asp-Asp-Ser-Ser-Asn-Val-Leu-Cys-Lys-Lys-Tyr-Arg-Ser] (H-CYFDDSSNVLCKKYRS-OH; disulfide 1-11), the “half-life in plasma and kidney tissue” value in data set [1] (administered intravenously to rodents, FIG. 1) is listed as “short half-life”. For the same molecule, in data set [1] (rat kidney tissue, ten minutes post i.v. administration, FIG. 2), the “metabolites identified in the kidney” value is “metabolites VI, VII, VIII and IX”. In the data set “Ex-vivo plasma stability” (60 min, read-out: Percent remaining 60 min), the amount remaining at 1 h came out at 3.4%. Also, the share remaining at 2 h in the data set “Ex-vivo plasma stability” (120 min, read-out: Percent remaining 120 min) came out at 2.3%.
